Measurements taken from patent publication US12637433B2, “Histone deacetylase inhibitors” (THE UNIVERSITY OF QUEENSLAND, priority 2020, dated 2026).

How the values were obtained:
[1] = biological target: T1, human HDAC7 enzyme (Homo sapiens, UniProt Q8WUI4); experiment: Human HDAC7 enzyme assay (Class IIa HDACs); type: biochemical; details: Table 8; recombinant human HDAC7
T1 construct: purchased Reaction Biology Corp

[2] = biological target: T2, human HDAC1 enzyme (Homo sapiens, UniProt Q13547); experiment: Human HDAC1 enzyme assay (Class I HDACs); type: biochemical; details: Table 8; recombinant human HDAC1; read-out: IC50 (nM) (HDAC1)
T2 construct: purchased BPS Bioscience
Description: The inhibitory effect of compounds on HDAC1 activity was assessed in vitro using an optimised assay performed in black/flat black wall 384-well plate (Corning Inc.). All reagents and compounds were prepared in HDAC1 assay buffer (25 mM Tris-HCl, 137 mM NaCl, 2.7 mM KCl, 1 mM MgCl2·H2O and 0.1 mg/mL bovine serum albumin; pH 8). Various concentrations of inhibitor were pre-incubated with 50 ng/mL human HDAC1 enzyme (BPS Bioscience) for 30 min at room temperature on a plate shaker. Substrate (Leu(Ac)-Gly-Lys(Ac)-AMC, 12 μM) were then added and incubated for 90 min at 37° C. in the dark. The enzymatic reaction was then incubated with the developer solution (1 mg/mL trypsin and 25 μM SAHA) for 15-20 min at room temperature. Fluorescence intensity was measured using PHERAstar plate reader (BMG Labtech) at 350 nm excitation and 460 nm emission.
Data analysis: Triplicate measurements were made for each data point and error bars represent mean±SEM of three independent experiments. All data were plotted and analysed using GraphPad Prism Version 6.0d for Mac OS X (GraphPad Software). Dose Response Curves plotted using 4 parameters logistic model.

T2 sequence (Q13547 whole entry): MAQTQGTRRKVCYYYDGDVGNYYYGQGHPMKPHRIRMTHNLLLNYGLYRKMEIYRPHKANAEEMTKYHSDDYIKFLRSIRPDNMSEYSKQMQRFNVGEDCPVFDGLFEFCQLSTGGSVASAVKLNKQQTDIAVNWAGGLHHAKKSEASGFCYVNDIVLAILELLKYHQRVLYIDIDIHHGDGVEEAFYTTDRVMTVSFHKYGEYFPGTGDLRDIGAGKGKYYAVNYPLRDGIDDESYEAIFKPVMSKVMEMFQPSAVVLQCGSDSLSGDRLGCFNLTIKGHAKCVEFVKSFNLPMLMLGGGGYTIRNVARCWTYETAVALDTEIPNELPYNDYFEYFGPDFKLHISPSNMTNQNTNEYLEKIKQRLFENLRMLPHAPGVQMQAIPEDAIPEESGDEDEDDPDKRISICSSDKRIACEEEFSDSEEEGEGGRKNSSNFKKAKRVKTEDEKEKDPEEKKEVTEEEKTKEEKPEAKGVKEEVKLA
T1 sequence (Q8WUI4 whole entry): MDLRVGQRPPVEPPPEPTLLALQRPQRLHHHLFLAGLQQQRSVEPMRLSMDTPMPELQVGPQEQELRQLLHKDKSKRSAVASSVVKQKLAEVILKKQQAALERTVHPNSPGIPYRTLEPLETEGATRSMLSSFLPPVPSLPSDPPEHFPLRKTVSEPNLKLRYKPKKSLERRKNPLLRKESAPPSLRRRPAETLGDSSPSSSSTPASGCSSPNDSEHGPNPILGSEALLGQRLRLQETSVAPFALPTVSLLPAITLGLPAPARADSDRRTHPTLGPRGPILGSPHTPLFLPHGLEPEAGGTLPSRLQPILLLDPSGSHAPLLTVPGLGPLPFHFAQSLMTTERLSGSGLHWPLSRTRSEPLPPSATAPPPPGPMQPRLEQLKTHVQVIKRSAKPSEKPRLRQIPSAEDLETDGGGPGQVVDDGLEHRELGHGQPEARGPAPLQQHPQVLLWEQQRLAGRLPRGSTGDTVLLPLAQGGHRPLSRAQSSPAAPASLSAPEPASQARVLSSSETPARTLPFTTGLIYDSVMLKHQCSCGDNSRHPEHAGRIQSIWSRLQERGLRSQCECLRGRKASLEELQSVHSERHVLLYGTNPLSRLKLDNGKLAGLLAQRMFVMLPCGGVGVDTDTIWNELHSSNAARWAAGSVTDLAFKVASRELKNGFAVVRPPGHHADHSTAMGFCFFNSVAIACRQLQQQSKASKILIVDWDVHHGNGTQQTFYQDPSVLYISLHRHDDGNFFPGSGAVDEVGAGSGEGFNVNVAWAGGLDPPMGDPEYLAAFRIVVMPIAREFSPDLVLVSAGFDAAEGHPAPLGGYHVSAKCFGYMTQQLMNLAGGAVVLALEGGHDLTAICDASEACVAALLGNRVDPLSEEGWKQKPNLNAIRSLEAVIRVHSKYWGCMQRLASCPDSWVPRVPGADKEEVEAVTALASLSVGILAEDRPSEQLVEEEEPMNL

| Compound | IC50 [1] | IC50 [2] |
| --- | --- | --- |
| O=C(NO)c1ccc(NC(=O)C2(c3c[nH]c(-c4ccc([N+](=O)[O-])cc4)n3)CCCC2)cc1-c1ccccc1 [Example 85] | 625 ± 318 nM | – |
| Cc1nc2ccccc2c(=O)n1Cc1ccc(C(=O)NO)c(C2CC2)c1 [Example 106] | 8660 nM | – |
| COC(=O)c1ccc(CNCc2ccc(C(=O)NO)c(-c3ccccc3)c2)cc1-c1ccccc1 [Example 32, N-(4-hydroxyaminocarbonyl-3-phenylbenzyl)-N-(4-methoxycarbonyl-3-phenylbenzyl)amine] | 137 ± 30 nM | – |
| O=C(NCc1ccc(C(=O)NO)c(-c2ccccc2)c1)Nc1ccccc1 [Example 28] | 104 ± 21 nM | – |
| COc1ccc(-c2cc(CNC(=O)Nc3cccc4cccnc34)ccc2C(=O)NO)cc1 [Example 102] | > 10000 nM | – |
| O=C(NO)c1ccc(CN2C(=O)CCC2=O)cc1-c1ccccc1 [Example 51] | – | > 20000 nM |
| Cc1ccccc1-c1cc(CNC(=O)Nc2cccc3cccnc23)ccc1C(=O)NO [Example 9] | 125 ± 26 nM | – |
| O=C(NCc1ccc(C(=O)NO)c(-c2ccccc2F)c1)Nc1cccc2cccnc12 [Example 4] | 152 ± 40 nM | – |
| CC(=O)Nc1cccc(C(=O)NCc2ccc(C(=O)NO)c(-c3ccccc3)c2)c1 [Example 19] | 78 ± 21 nM | – |
| C[C@H](N)C(=O)NCc1ccc(C(=O)NO)c(-c2ccccc2)c1 [Example 92] | 3130 ± 1730 nM | – |
| CC(C)(C)OC(=O)c1ccc(Nc2ccc(C(=O)NO)c(-c3ccccc3)c2)cc1 [Example 75] | 54 ± 7 nM | – |
| O=C(NO)c1ccc(C(n2cc(-c3ccccc3)nn2)n2cc(-c3ccccc3)nn2)cc1-c1ccccc1 [Example 58] | 5 ± 1 nM | – |
| O=C(NO)c1ccc(Cn2cnc3ccccc3c2=O)cc1-c1ccccc1 [Example 34] | – | 3190 ± 816 nM |
| O=C(NCc1ccc(C(=O)NO)c(-c2ccccc2)c1)c1ccccc1NC(=O)C(F)(F)F [Example 22] | 925 ± 865 nM | – |
| COc1ccc(C(=O)Nc2ccc(C(=O)NO)c(-c3ccccc3)c2)cc1 [Example 63] | 323 nM | – |
| O=C(NCc1ccc(C(=O)NO)c(-c2ccccc2)c1)c1ccncc1 [Example 18] | 205 ± 47 nM | – |
| O=C(NO)c1ccc(NC(=O)C2(C(=O)Nc3ccccc3)CCCCC2)cc1-c1ccccc1 [Example 90] | 168 nM | – |
| O=C(NCc1ccc(C(=O)NO)c(-c2cn[nH]c2)c1)Nc1cccc2cccnc12 [Example 104] | > 10000 nM | – |
| Nc1ccc(-c2cc(CNC(=O)Nc3cccc4cccnc34)ccc2C(=O)NO)cc1 [Example 105] | > 10000 nM | – |
| O=C(NO)c1ccc(CNCc2ccccc2)cc1-c1ccccc1 [Example 30, 5-((benzylamino)methyl)-N-hydroxy-[1,1′-biphenyl]-2-carboxamide] | 1470 ± 426 nM | – |
| O=C(NCc1ccc(C(=O)NO)c(-c2ccccc2)c1)c1cccnc1 [Example 17] | 151 ± 52 nM | – |
| O=C(NCc1ccc(C(=O)NO)c(-c2ccccc2)c1)c1ccccc1F [Example 50] | – | 16000 nM |
| O=C(NO)c1ccc(Cn2c(=O)cc[nH]c2=O)cc1-c1ccccc1 [Example 38] | – | > 10000 nM |
| O=C(NCc1ccc(C(=O)NO)c(-c2ccccc2)c1)c1ccccn1 [Example 16] | 108 ± 34 nM | – |
| O=C(NO)c1ccc(CNC(=O)C2CCCN2)cc1-c1ccccc1 (stereo not shown) [Example 27] | 960 ± 225 nM | – |
| O=C(Nc1ccc(C(=O)NO)c(-c2ccccc2)c1)c1ccc(F)cc1 [Example 61] | 645 nM | – |

| Compound | IC50 [1] | IC50 [2] |
| --- | --- | --- |
| O=C(NO)c1ccc(Nc2ccccn2)cc1-c1ccccc1 [Example 82] | 249 nM | – |
| O=C(NCc1ccc(C(=O)NO)c(-c2cccc(F)c2)c1)Nc1cccc2cccnc12 [Example 5] | 64 ± 12 nM | – |
| O=C(NO)c1ccc(NC(=O)C2(C(=O)Nc3ccccc3)CCCC2)cc1-c1ccccc1 [Example 89] | 243 nM | – |
| CCCCCCNC(=O)NCc1ccc(C(=O)NO)c(-c2ccccc2)c1 [Example 29] | 196 ± 66 nM | – |
| O=C(NO)c1ccc(Oc2ccc(F)cc2)cc1-c1ccccc1 [Example 80] | 175 ± 26 nM | – |
| O=C(NCc1ccc(C(=O)NO)c(-c2ccc(F)cc2)c1)Nc1cccc2cccnc12 [Example 6] | 118 ± 21 nM | – |
| Nc1ccc(C(=O)NO)c(-c2ccccc2)c1 [Example 99] | 945 nM | – |
| O=C(NCc1ccc(C(=O)NO)c(-c2ccccc2Cl)c1)Nc1cccc2cccnc12 [Example 7] | 178 ± 47 nM | – |
| Cc1ccc(C(=O)Nc2ccc(C(=O)NO)c(-c3ccccc3)c2)cc1 [Example 62] | 431 nM | – |
| O=C(NCc1ccc(C(=O)NO)c(-c2ccccc2)c1)c1ccccc1 [Example 15] | 123 ± 39 nM | – |
| Cc1nc2ccccc2c(=O)n1Cc1ccc(C(=O)N(C)O)c(-c2ccccc2)c1 [Example 100] | ≥ 10000 nM | – |
| NC(=O)c1ccc(C(=O)NCc2ccc(C(=O)NO)c(-c3ccccc3)c2)cc1 [Example 21] | 116 ± 27 nM | – |
| CCc1nc2ccccc2c(=O)n1Cc1ccc(C(=O)NO)c(-c2ccccc2)c1 [Example 35] | – | 5280 ± 3490 nM |
| CC1C(=O)N(C2CCCCC2)C(=O)N1Cc1ccc(C(=O)NO)c(-c2ccccc2)c1 (stereo not shown) [Example 98] | 100 ± 18 nM | – |
| O=C(NO)c1ccc(NC(=O)C2(c3ccc4ccccc4c3)CCOCC2)cc1-c1ccccc1 [Example 93] | 1590 nM | – |
| O=C(NO)c1ccc(Nc2cc(F)c(F)c(F)c2)cc1-c1ccccc1 [Example 70] | 649 nM | – |
| CC1C(=O)NC(Cc2ccccc2)C(=O)N1Cc1ccc(C(=O)NO)c(-c2ccccc2)c1 (mixture of isomers) [Example 96] | 322 ± 109 nM | – |
| CN(c1ccc(F)cc1)c1ccc(C(=O)NO)c(-c2ccccc2)c1 [Example 81] | 64 ± 10 nM | – |
| O=C(NO)c1ccc(NC(=O)C2(C(=O)Nc3ccccc3)CCC2)cc1-c1ccccc1 [Example 88] | 75 ± 23 nM | – |
| O=C(NO)c1ccc(Nc2ncccn2)cc1-c1ccccc1 [Example 83] | 447 ± 177 nM | – |
| O=C(NO)c1ccc(Nc2ccc(Cl)cc2)cc1-c1ccccc1 [Example 68] | 178 nM | – |
| O=C(NO)c1ccc(Nc2cnccn2)cc1-c1ccccc1 [Example 84] | 233 ± 95 nM | – |
| O=C(NO)c1ccc(CNCc2ccc(C(=O)NO)c(-c3ccccc3)c2)cc1-c1ccccc1 [Example 31, bis(4-hydroxyaminocarbonyl-3-phenylbenzyl)amine] | 125 ± 22 nM | – |
| O=C(NO)c1ccc(Nc2ccccc2)cc1-c1ccccc1 [Example 66] | 94 nM | – |
| O=C(Cc1c[nH]c2ccccc12)NCc1ccc(C(=O)NO)c(-c2ccccc2)c1 [Example 25] | 238 ± 86 nM | – |
| Cc1cccc(-c2cc(CNC(=O)Nc3cccc4cccnc34)ccc2C(=O)NO)c1 [Example 10] | > 10000 nM | – |

| Compound | IC50 [1] | IC50 [2] |
| --- | --- | --- |
| O=C(NO)c1ccc(CN2C(=O)c3ccncc3C2=O)cc1-c1ccccc1 [Example 54] | – | > 20000 nM |
| O=C(NCc1ccc(C(=O)NO)c(-c2cccc(Cl)c2)c1)Nc1cccc2cccnc12 [Example 8] | 886 ± 192 nM | – |
| O=C(NCc1ccc(C(=O)NO)c(-c2ccccc2)c1)c1cnc[nH]1 [Example 94] | 165 ± 45 nM | – |
| CC(=O)Nc1ccc(C(=O)NCc2ccc(C(=O)NO)c(-c3ccccc3)c2)cc1 [Example 20] | 101 ± 26 nM | – |
| O=C(NO)c1ccc(Nc2ccc(-c3ccccc3)cc2)cc1-c1ccccc1 [Example 72] | > 10000 nM | – |
| O=C(NO)c1ccc(Nc2cc(F)cc(F)c2)cc1-c1ccccc1 [Example 71] | 206 nM | – |
| CONC(=O)c1ccc(Cn2c(C)nc3ccccc3c2=O)cc1-c1ccccc1 [Example 101] | ≥ 10000 nM | – |
| O=C(Nc1ccccc1)Nc1ccc(C(=O)NO)c(-c2ccccc2)c1 [Example 86] | 248 nM | – |
| O=C(O)c1ccc(CNCc2ccc(C(=O)NO)c(-c3ccccc3)c2)cc1-c1ccccc1 [Example 33, N-(4-hydroxyaminocarbonyl-3-phenylbenzyl)-N-(4-hydroxycarbonyl-3-phenylbenzyl)amine] | 658 ± 208 nM | – |
| COc1cccc(-c2cc(CNC(=O)Nc3cccc4cccnc34)ccc2C(=O)NO)c1 [Example 103] | > 10000 nM | – |
| O=C(O)c1ccc(Nc2ccc(C(=O)NO)c(-c3ccccc3)c2)cc1 [Example 74] | 68 ± 15 nM | – |
| O=C(NO)c1ccc(CN2Cc3ccccc3C2=O)cc1-c1ccccc1 [Example 49] | – | 33000 nM |
| O=C(Nc1ccc(C(=O)NO)c(-c2ccccc2)c1)c1ccccc1 [Example 60] | 325 nM | – |
| Cc1ccc(Nc2ccc(C(=O)NO)c(-c3ccccc3)c2)cc1 [Example 76] | 81 ± 19 nM | – |
| O=C(NO)c1ccc(CNCc2ccc[nH]2)cc1-c1ccccc1 [Example 95] | 914 ± 204 nM | – |
| O=C(NO)c1ccc(NC(=O)C2(C(=O)Nc3ccccc3)CC2)cc1-c1ccccc1 [Example 87] | 241 nM | – |
| O=C(NO)c1ccc(Nc2ccc(F)cc2)cc1-c1ccccc1 [Example 67] | 88 nM | – |
| O=C(NO)c1c(F)cc(CN2C(=O)c3ccccc3S2(=O)=O)cc1-c1ccccc1 [Example 57b] | 582 ± 104 nM | – |
| O=C(NO)c1ccc(Nc2ccc(C(F)(F)F)cc2)cc1-c1ccccc1 [Example 69] | 578 nM | – |
| COc1ccc(Nc2ccc(C(=O)NO)c(-c3ccccc3)c2)cc1 [Example 77] | 61 ± 9 nM | – |
| O=C(NO)c1ccc(Nc2ccc3ccccc3c2)cc1-c1ccccc1 [Example 73] | 321 nM | – |
| O=C(NO)c1ccc(CN2C(=O)c3cccnc3C2=O)cc1-c1ccccc1 [Example 53] | – | 28000 nM |
| Cc1ccc(-c2cc(CNC(=O)Nc3cccc4cccnc34)ccc2C(=O)NO)cc1 [Example 11] | 1890 ± 431 nM | – |
| CC1C(=O)Nc2ccccc2C(=O)N1Cc1ccc(C(=O)NO)c(-c2ccccc2)c1 (stereo not shown) [Example 97] | 74 ± 13 nM | – |
